Experimental data published in patent EP0184331A2 (priority 1984, dated 1986).
Where two headings read alike, the source gives them in different places.

Key:
Graffi virus = conditions: cited from earlier work
[1] = test system: leukemic cells obtained by infection of mice with Graffi's leukemia virus; conditions: cited from earlier work
Moloney sarcoma virus = conditions: cited from earlier work
[2] = test system: Vesicular stomatitis virus (VSV); conditions: cited from earlier work; for effectiveness in photoinactivation compared with TMP: 0.7 mW/cm^2 long-wave UV light; for light dose response in the inactivation of VSV: 20-30 µg/ml
[3] = test system: herpes simplex virus (a DNA virus); conditions: cited from earlier work
[4] = test system: Intracellular influenza virus; conditions: 10 µg/ml of AMT, 1.2 mW/cm^2; cited from earlier work
Herpes virus = conditions: cited from earlier work; for photoinactivation: in 0.9 minutes, 10 ug/ml, 1.2 mW/cm^2 long-wave ultraviolet light
[5] = test system: tobacco mosaic virus (TMV); conditions: 100 mW/cm^2 long-wave ultraviolet light; AMT and HMT indistinguishable; cited from earlier work
[6] = test system: reovirus (a double-stranded RNA virus); conditions: cited from earlier work
[7] = test system: Western equine encephalitis virus (WEE, an RNA virus); conditions: cited from earlier work
[8] = test system: vesicular stomatitis virus; conditions: approximately 5 minutes irradiation at 9 mW/cm^2, 8.2 µg/ml AMT; cited from earlier work
influenza virus = conditions: cited from earlier work
[9] = test system: vesicular stomatitis virus; conditions: 9 mW/cm^2 long-wave ultraviolet light; sufficient for inactivation; cited from earlier work
[10] = test system: cell-free influenza virus; conditions: 1.2 mW/cm^2, cited from earlier work
Rous sarcoma virus = conditions: cited from earlier work
[11] = cited from earlier work
NewCastle disease virus = conditions: cited from earlier work
HTLV-III = type: cell-based, Human Tumor Leukemia Virus (HTLV) III
fowl pox virus = conditions: cited from earlier work
canine hepatitis virus = conditions: cited from earlier work
Teschen disease virus = conditions: cited from earlier work
[12] = test system: foot-and-mouth disease virus; conditions: cited from earlier work
pseudorabies = conditions: cited from earlier work
[13] = 30 minutes at 11.5 mW/cm^2 ultraviolet light (365 mm), 10 µg/ml
[14] = 30 minutes at 11.5 mW/cm^2 ultraviolet light, 10 µg/ml
[15] = at higher psoralen derivative concentrations
[16] = on a molar basis, within TMP solubility range

Structure (SMILES): Cc1coc2c(C)c3oc(=O)cc(C)c3cc12 [4,4',8-trimethylpsoralen]
- properties of the [intracellular] Graffi virus (Graffi virus; [13]): remained unchanged
- effect on leukemic cells (ability to replicate or induce leukemia in adult mice) [1, 14]: killed the cells

Structure (SMILES): Cc1c2occc2cc2ccc(=O)oc12 [8-methyl-psoralen]
- properties of the [intracellular] Graffi virus (Graffi virus; [13]): remained unchanged
- effect on leukemic cells (ability to replicate or induce leukemia in adult mice) [1, 14]: killed the cells

Structure (SMILES): Cc1oc2c(C)c3oc(=O)cc(C)c3cc2c1CN [AMT, 4'-aminomethyl 4,5',8-trimethyl-psoralen]
- inactivation (Moloney sarcoma virus): 10 -fold
- effectiveness in photoinactivation compared with TMP [2]: a thousand times more effective than TMP
- photoinactivation of VSV, comparison of derivatives ([2]; 2-3 µg/ml, 0.7 mW/cm^2): superior to HMT and MMT
- light dose response in the inactivation of VSV ([2]; 0.7 mW/cm^2): equivalent with respect to light dose response
- inactivation rates compared with TMP [3, 15]: superior inactivation rates
- time required for a 10^7-fold inactivation [4]: 4 minutes
- effectiveness compared with HMT (Herpes virus; at lower concentrations of the psoralen derivatives, 1.2 mW/cm^2): always more effective than an equal amount of HMT
- photoinactivation (Herpes virus): 10^4 -fold
- effect on translational activity compared with TMP [5]: slightly greater than the effects of TMP
- reduction of infectivity ([6]; 15 minutes irradiation at 9 mW/cm^2, AMT 2.8 x 10^-4 M = 82 ug/ml): > 10^4 -fold
- inactivation ([7]; approximately 5 minutes of irradiation at 1.9 mW/cm^2, 10 µg/ml AMT): 10^8 -fold
- inactivation rates compared with TMP [7, 15]: superior inactivation rates
- reduction of viral RNA polymerase activity [8]: 100 -fold
- reduction of viral RNA polymerase activity (influenza virus; approximately 5 minutes irradiation at 9 mW/cm^2, 8.2 µg/ml AMT): 100 -fold
- photoreaction with viral RNA [9]: photoreact only with a single base (cytosine)
- rate of inactivation compared with equivalent amounts of HMT ([10]; at all psoralen concentrations): more rapidly inactivated
- inactivation ([10]; in 1 minute, 10 µg/ml of AMT): 10 -fold

Structure (SMILES): Cc1oc2c(C)c3oc(=O)cc(C)c3cc2c1CO [HMT, 4'-hydroxymethyl 4,5',8-trimethyl-psoralen]
- effectiveness in photoinactivation compared with TMP [2]: a thousand times more effective than TMP
- light dose response in the inactivation of VSV ([2]; 0.7 mW/cm^2): equivalent with respect to light dose response
- photoinactivation (Herpes virus): 10^4 -fold
- inactivation (Rous sarcoma virus): 10^4 -fold
- effect on translational activity compared with TMP [5]: slightly greater than the effects of TMP
- reduction of infectivity ([6]; 20 minutes of irradiation at 9 mW/cm^2, HMT 2.8 x 10^-4 M = 72 µg/ml): 5 -fold
- less effective than AMT in the photoinactivation of influenza virus (influenza virus; same conditions as AMT (9 mW/cm^2)): about 10 -fold

Structure (SMILES): COCc1c(C)oc2c(C)c3oc(=O)cc(C)c3cc12 [MMT, 4'-methoxymethyl 4,5',8-trimethyl-psoralen]
- effectiveness in photoinactivation compared with TMP [2]: a thousand times more effective than TMP
- light dose response in the inactivation of VSV ([2]; 0.7 mW/cm^2): equivalent with respect to light dose response

Structure (SMILES): Cc1cc2cc3c(C)cc(=O)oc3c(C)c2o1 [TMP, 4,5',8-tri-methylpsoralen]
- effectiveness in photoinactivation compared with AMT [3, 16]: more effective
- solubility range [11]: 0 to 1 µg/mL
- effectiveness in photoinactivation compared with AMT [7, 16]: more effective

Structure (SMILES): O=c1ccc2cc3ccoc3cc2o1 [psoralen, Psoralen]
- RSV inactivated (Rous sarcoma virus): approximately 1 x 10^5 FFU/ml
- irradiation resisted by the virus (NewCastle disease virus): up to 120 minutes
- HTLV-III titers (HTLV-III): 1 x 10^5 FFU/mL
- infectious HTLV-III recovered (HTLV-III): no infectious HTLV-III was recovered
- photoinactivation (fowl pox virus): photoinactivated
- photoinactivation (canine hepatitis virus): photoinactivated
- irradiation resisted by the virus (Teschen disease virus): up to 120 minutes
- irradiation resisted by the virus [12]: up to 120 minutes
- photoinactivation (pseudorabies): photoinactivated
- properties of the [intracellular] Graffi virus (Graffi virus): remained unchanged
- effect on leukemic cells (ability to replicate or induce leukemia in adult mice) [1]: killed the cells
